Reference: patent US7476649B2, “Antiproliferative and antiviral proteins and peptides” (priority 1998, dated 2009)
Values after ≈ are worked out from the molar mass of the structure shown. Read-outs that look alike come from different tables or passages of the source.

What was measured:
[1] = test system: type 1 herpes (HSV-1), strain McKrae; assay type: cell-based, Herpes Simplex Type I
[2] = test system: type 1 herpes (HSV-1), strain McKrae; assay type: cell-based, Herpes Simplex Type I; remark: listed apart in the source
[3] = test system: human embryonic lung cell line MRC-5
[4] = test system: San Angelo (SAV); assay: microbe, parasite or virus in culture; assay type: cell-based, San Angelo virus
[5] = test system: San Angelo (SAV); assay type: cell-based, San Angelo virus
[6] = in vitro; settings: African green monkey
[7] = in vitro; settings: African green monkey; remark: listed apart in the source
[8] = in vitro; settings: African green monkey; remark: listed apart in the source
[9] = in vitro; settings: African green monkey; remark: listed apart in the source
[10] = test system: African green monkey cells (CV-1)
[11] = test system: African green monkey cells (CV-1); remark: listed apart in the source

## Nc1nc2c(ncn2COCCO)c(=O)[nH]1 [Acyclovir, acyclovir]
[1]
  COMMENT (activity): Excellent activity.
[2]
  COMMENT (activity): Excellent activity.
[3]
  CC50: >100 µg/mL

## NC(=O)c1ncn([C@@H]2O[C@H](CO)[C@@H](O)[C@H]2O)n1 [Ribavirin, ribavirin]
[4]
  COMMENT (activity): Very good activity.
[4]; San Angelo virus, Vero
  EC50: 30 µg/mL (≈ 123 µM)
[5]
  COMMENT (activity): Very good activity.
[6]
  CC50: > 100 µg/mL
[7]
  CC50: > 100 µg/mL
[8]
  CC50: > 100 µg/mL
[9]
  CC50: > 100 µg/mL

## Nc1ccn(C[C@@H](CO)OCP(=O)(O)O)c(=O)n1 [HPMPC, cidofovir]
[10]
  CC50: >100 µg/mL
[11]
  CC50: >100 µg/mL
